From US10245249B2, “Pharmaceutical compositions comprising nitroxyl donors” (Cardioxyl Pharmaceuticals, Inc., priority 2013, dated 2019)

Tests used:
[1] = In vitro stability (half-life) in phosphate buffered saline (PBS) pH 7.4; format: physicochemical; details: pH 7.4, 5 μM, PBS pH 7.4, 37° C., read-out: T1/2 (minutes) PBS
Description: (§1) Certain compounds from Tables 1 and 2 and CXL-1020 were tested for their stability in phosphate buffered saline (PBS) and plasma. The assay system comprised (i) PBS, or plasma from rat, dog or human (at least 3 donors, male, pooled) at pH 7.4, and (ii) for tests conducted in plasma, an anticoagulant (sodium heparin or sodium citrate). Each test compound (5 μM) was incubated in PBS or plasma at 37° C. on a THERMOMIXER® with shaking. Three samples (n=3) were taken at each of seven sampling time points: 0, 10, 30, 60, 90, 180 and 360 minutes. The samples were immediately combined with 3 volumes (i.e., 3 times the volume of PBS or plasma) of acetonitrile containing 1% formic acid and an internal standard to terminate the reaction. AB SCIEX API 3000 LC-MS/MS analysis of the test compounds was performed without a standard curve. Half-lives (T1/2) of the test compounds were determined from graphs of the percent remaining values using the peak area response ratio. For compounds tested multiple times, the value provided in the Table represents an average of the replicate assays.

[2] = In vitro stability (half-life) in rat plasma; format: in vitro ADME; details: rat plasma pH 7.4 with anticoagulant, 37° C.; for half-life at 5 μM: male, rat, plasma, pH 7.4, 5 μM, read-out: T1/2 (minutes) Rat
Description: as §1

[3] = HNO production determined via N2O quantification (GC headspace analysis); format: physicochemical; details: PBS, 37° C.
Description: Nitrous oxide (N2O) is produced via the dimerization and dehydration of HNO, and is the most common marker for nitroxyl production (Fukuto et al., Chem. Res. Toxicol. 18:790-801 (2005)). […] Using either nitrous oxide gas or Angeli's salt (AS) as a standard, the relative amounts of N2O released from compounds of the disclosure was examined via gas chromatography (GC) headspace analysis.
A procedure for determining the relative amounts of N2O released from compounds of the disclosure is as follows. GC was performed on an Agilent gas chromatograph equipped with a split injector (10:1 splitting), microelectron capture detector, and a HP-MOLSIV 30 m×0.32 mm×25 μm molecular sieve capillary column. Helium was used as the carrier (4 mL/min) gas and nitrogen was used as the make-up (20 mL/min) gas. The injector oven and the detector oven were kept at 200° C. and 325° C., respectively. All nitrous oxide analyses were performed with the column oven held at a constant temperature of 200° C.
All gas injections were made using an automated headspace analyzer. Vial pressurization was 15 psi. The analyzer's sample oven, sampling valve, and transfer line were kept at 40° C., 45° C., and 50° C., respectively. The oven stabilization, vial pressurization, loop fill, loop equilibration, and sample injection times were 1.00 min., 0.20 min., 0.20 min., 0.05 min., and 1.00 min., respectively.
All determinations used a batch of nominal 20 mL headspace vials with volumes pre-measured for sample uniformity (actual vial volume varied by <2.0% relative standard deviation (n=6)). The average vial volume for the batch was determined from six randomly-selected vials by calculating the weight difference between the capped and sealed empty (i.e., air-filled) vial and the capped and sealed deionized water-filled vial using the known density of deionized water, then averaging. Blanks were prepared by sealing and capping two vials then purging each for 20 seconds with a gentle argon stream. Nitroxyl standards were prepared by sealing and capping four vials then purging each for 1 minute with a gentle stream, from a gas cylinder, of a 3000 ppm […].
CXL-1020 (N-hydroxy-2-methanesulfonylbenzene-1-sulfonamide) “standards” were prepared by, in duplicate, accurately weighing 10±0.5 mg of CXL-1020 and adding it to each 4 mL vial. Using an auto pipette, 1 mL of argon-purged anhydrous DMF (Sigma-Aldrich) was added to each 4 mL vial to form a CXL-1020 stock solution for each sample and the vials were capped and shaken and/or sonicated to insure complete dissolution upon visual observation. Using an auto pipette, 20 mL vials were charged with 5 mL of PBS (purged for at least 30 min. with argon prior to use), purged with argon for at least 20 sec., and sealed with a rubber septum. Using a 50 μL syringe, 50 μL of the CXL-1020 stock solution was injected into each 20 mL vial containing the PBS.
Samples were prepared as follows. In duplicate, 18±1 mg of each sample was accurately weighed into each 4 mL vial. Using an auto pipette, 1 mL of argon-purged anhydrous DMF was added to each 4 mL vial to form a sample stock solution for each sample and the vials were capped and shaken and/or sonicated to insure complete sample dissolution upon visual observation. Using an auto pipette, 20 mL vials were charged with 5 mL of PBS (purged for at least 30 min. with argon prior to use), purged with argon for at least 20 sec., and sealed with a rubber septum. The vials were equilibrated for at least 10 min. at 37° C. in a dry block heater. Thereafter, using a 50 μL syringe, 50 μL of a sample stock solution was injected into each 20 mL vial containing the PBS. The vials were then held at 37° C. in the dry block heater for a time period such that the sum of the time spent in the dry block heater plus the time spent in the automated headspace analyzer oven before sample injection equaled the desired incubation time. […]

For `CC(=O)N1CCc2cc(Br)c(S(=O)(=O)NO)cc21` [Compound 9, 1-Acetyl-5-bromo-N-hydroxy-2,3-dihydro-1H-indole-6-sulfonamide], the half-life at 5 μM [1] was 2 min, the half-life at 5 μM [2] was > 360 min and the “Relative N2O Yield (90 minutes incubation)” value [3] was 53%. For the same compound, the “Relative N2O Yield (360 minutes incubation)” value [3] was 71%.

In the case of `Cc1ccc(C)c(S(=O)(=O)NO)c1` [Compound 49, N-Hydroxy-2,5-dimethylbenzene-1-sulfonamide], the half-life at 5 μM [1] is reported as 87 min, the half-life at 5 μM [2] is reported as 13 min and the “Relative N2O Yield (90 minutes incubation)” value [3] is reported as 42%. For the same compound, the “Relative N2O Yield (360 minutes incubation)” value [3] was 68%.

In the case of `O=S(=O)(NO)c1ccc(Cl)c(Cl)c1` [Compound 95, 3,4-Dichloro-N-hydroxybenzene-1-sulfonamide], the half-life at 5 μM [1] is reported as > 360 min and the half-life at 5 μM [2] is reported as > 360 min.

`Cn1cc(S(=O)(=O)NO)cn1` [Compound 31, N-Hydroxy-1-methyl-1H-pyrazole-4-sulfonamide] showed a half-life at 5 μM [1] of 745 min.

With `CC(C)NC(=O)c1ccc(S(=O)(=O)NO)s1` [Compound 22, 5-(Hydroxysulfamoyl)-N-(propan-2-yl)thiophene-2-carboxamide] the half-life at 5 μM [1] was 33 min, the half-life at 5 μM [2] was 23 min and the “Relative N2O Yield (90 minutes incubation)” value [3] was 85%.

In the case of `O=S(=O)(NO)c1ccc2nsnc2c1` [Compound 15, N-Hydroxy-2,1,3-benzothiadiazole-5-sulfonamide], the half-life at 5 μM [1] is reported as 63 min, the “Relative N2O Yield (90 minutes incubation)” value [3] is reported as 59% and the “Relative N2O Yield (360 minutes incubation)” value [3] is reported as 71%.

For `COc1ccc2cc(S(=O)(=O)NO)oc2c1` [Compound 13, N-Hydroxy-6-methoxy-1-benzofuran-2-sulfonamide], the half-life at 5 μM [1] was 42 min and the “Relative N2O Yield (90 minutes incubation)” value [3] was 86%.

With `O=S(=O)(NO)c1cc(S(=O)(=O)c2ccccc2)cs1` [Compound 51, 4-(Benzenesulfonyl)-N-hydroxythiophene-2-sulfonamide] the half-life at 5 μM [1] was 15 min, the half-life at 5 μM [2] was 7 min and the “Relative N2O Yield (90 minutes incubation)” value [3] was 96%.

For `O=S(=O)(NO)c1cccc2nsnc12` [Compound 24, N-Hydroxy-2,1,3-benzothiadiazole-4-sulfonamide], the half-life at 5 μM [1] was 37 min, the half-life at 5 μM [2] was 14 min and the “Relative N2O Yield (90 minutes incubation)” value [3] was 60%. The “Relative N2O Yield (360 minutes incubation)” value [3] was 69%.

With `CS(=O)(=O)c1csc(S(=O)(=O)NO)c1` [Compound 16, N-Hydroxy-4-methanesulfonylthiophene-2-sulfonamide] the half-life at 5 μM [1] was 20 min and the “Relative N2O Yield (90 minutes incubation)” value [3] was 86%.

In the case of `O=S(=O)(NO)c1cccc2ccoc12` [Compound 4, N-Hydroxy-1-benzofuran-7-sulfonamide], the half-life at 5 μM [1] is reported as 149 min and the “Relative N2O Yield (90 minutes incubation)” value [3] is reported as 64%.

For `Cc1ccc(F)c(S(=O)(=O)NO)c1` [Compound 56, 2-Fluoro-N-hydroxy-5-methylbenzene-1-sulfonamide], the half-life at 5 μM [1] was 34 min, the half-life at 5 μM [2] was 8 min and the “Relative N2O Yield (90 minutes incubation)” value [3] was 72%. For the same compound, the “Relative N2O Yield (360 minutes incubation)” value [3] was 78%.

In the case of `O=S(=O)(NO)c1cc(CO)ccc1Cl` [Compound 10, 2-Chloro-N-hydroxy-5-(hydroxymethyl)benzene-1-sulfonamide], the half-life at 5 μM [1] is reported as 5 min and the “Relative N2O Yield (90 minutes incubation)” value [3] is reported as 91%.

For `O=C(c1cc(S(=O)(=O)NO)cs1)N1CCOCC1` [Compound 28, N-Hydroxy-5-(morpholine-4-carbonyl)thiophene-3-sulfonamide], the half-life at 5 μM [1] was 136 min and the “Relative N2O Yield (90 minutes incubation)” value [3] was 74%.

In the case of `Cc1ccc(S(=O)(=O)NO)c(F)c1` [Compound 14, 2-Fluoro-N-hydroxy-4-methylbenzene-1-sulfonamide], the half-life at 5 μM [1] is reported as 75 min, the half-life at 5 μM [2] is reported as 13 min and the “Relative N2O Yield (90 minutes incubation)” value [3] is reported as 48%. For the same compound, the “Relative N2O Yield (360 minutes incubation)” value [3] was 70%.

In the case of `O=C(c1ccc(S(=O)(=O)NO)s1)N1CCOCC1` [Compound 21, N-Hydroxy-5-(morpholine-4-carbonyl)thiophene-2-sulfonamide], the half-life at 5 μM [1] is reported as 39 min, the half-life at 5 μM [2] is reported as 36 min and the “Relative N2O Yield (90 minutes incubation)” value [3] is reported as 73.5%.

With `CC(=O)N1CCc2cc(Cl)c(S(=O)(=O)NO)cc21` [Compound 11, 1-Acetyl-5-chloro-N-hydroxy-2,3-dihydro-1H-indole-6-sulfonamide] the half-life at 5 μM [1] was 5 min, the half-life at 5 μM [2] was < 5 min and the “Relative N2O Yield (90 minutes incubation)” value [3] was 55%. The “Relative N2O Yield (360 minutes incubation)” value [3] was 81%.

With `Cc1nn(C)c(Cl)c1S(=O)(=O)NO` [Compound 30, 5-Chloro-N-hydroxy-1,3-dimethyl-1H-pyrazole-4-sulfonamide] the half-life at 5 μM [1] was 385 min and the “Relative N2O Yield (90 minutes incubation)” value [3] was 27%.

In the case of `O=S(=O)(NO)c1ccccn1` [Compound 32, N-Hydroxypyridine-2-sulfonamide], the half-life at 5 μM [1] is reported as 61 min, the half-life at 5 μM [2] is reported as 32 min and the “Relative N2O Yield (90 minutes incubation)” value [3] is reported as 71%.

In the case of `Cc1ccc(F)cc1S(=O)(=O)NO` [Compound 20, 5-Fluoro-N-hydroxy-2-methylbenzene-1-sulfonamide], the “T1/2 (minutes) Rat” value ([2]; 5 μM) is reported as 7 min and the “Relative N2O Yield (90 minutes incubation)” value [3] is reported as 90%.

With `CCN(CC)C(=O)c1ccc(S(=O)(=O)NO)s1` [Compound 19, N,N-Diethyl-5-(hydroxysulfamoyl)thiophene-2-carboxamide] the half-life at 5 μM [1] was 44 min and the “Relative N2O Yield (90 minutes incubation)” value [3] was 77%.

In the case of `COc1ccc(Br)cc1S(=O)(=O)NO` [Compound 17, 5-Bromo-N-hydroxy-2-methoxybenzene-1-sulfonamide], the half-life at 5 μM [1] is reported as 59 min, the half-life at 5 μM [2] is reported as > 360 min and the “Relative N2O Yield (90 minutes incubation)” value [3] is reported as 53%. The “Relative N2O Yield (360 minutes incubation)” value [3] was 77%.

In the case of `O=C(c1csc(S(=O)(=O)NO)c1)N1CCOCC1` [Compound 35, N-Hydroxy-4-(morpholine-4-carbonyl)thiophene-2-sulfonamide], the half-life at 5 μM [1] is reported as 58 min, the half-life at 5 μM [2] is reported as 19 min and the “Relative N2O Yield (90 minutes incubation)” value [3] is reported as 100%.

For `O=S(=O)(NO)c1cc(Cl)c(Cl)s1` [Compound 12, 4,5-Dichloro-N-hydroxythiophene-2-sulfonamide], the half-life at 5 μM [1] was 20 min and the “Relative N2O Yield (90 minutes incubation)” value [3] was 29%.

In the case of `Cc1cc(S(=O)(=O)NO)c(C)cc1Cl` [Compound 18, 4-Chloro-N-hydroxy-2,5-dimethylbenzene-1-sulfonamide], the half-life at 5 μM [1] is reported as 56 min, the half-life at 5 μM [2] is reported as > 360 min and the “Relative N2O Yield (90 minutes incubation)” value [3] is reported as 56%. For the same compound, the “Relative N2O Yield (360 minutes incubation)” value [3] was 73%.

For `Cc1cc(F)ccc1S(=O)(=O)NO` [Compound 39, 4-Fluoro-N-hydroxy-2-methylbenzene-1-sulfonamide], the half-life at 5 μM [1] was 30 min, the half-life at 5 μM [2] was 29 min and the “Relative N2O Yield (90 minutes incubation)” value [3] was 60%. For the same compound, the “Relative N2O Yield (360 minutes incubation)” value [3] was 75%.

For `COc1ccccc1S(=O)(=O)NO` [Compound 25, N-Hydroxy-2-methoxybenzene-1-sulfonamide], the half-life at 5 μM [1] was 86 min, the “Relative N2O Yield (90 minutes incubation)” value [3] was 7% and the “Relative N2O Yield (360 minutes incubation)” value [3] was 28%.

`CS(=O)(=O)c1ccc(S(=O)(=O)NO)s1` [Compound 23, N-Hydroxy-5-methanesulfonylthiophene-2-sulfonamide] showed a half-life at 5 μM [1] of 66 min.
